From ChEMBL document CHEMBL1671687, “Enhancement of biofilm formation by subinhibitory concentrations of macrolides in icaADBC-positive and -negative clinical isolates of Staphylococcus epidermidis” (2010)
The source made the active and inactive calls. The rule behind the calls is not given here.

Tests used:
[1] = test system: Staphylococcus epidermidis; experiment: Antimicrobial activity against Staphylococcus epidermidis SW029 expressing icaA gene; type: functional
[2] = test system: Staphylococcus epidermidis; experiment: Antimicrobial activity against Staphylococcus epidermidis SW036; type: functional
[3] = test system: Staphylococcus epidermidis; experiment: Antimicrobial activity against Staphylococcus epidermidis SW036 at 1/1024 X MIC; type: functional, organism-based
[4] = test system: Staphylococcus epidermidis; experiment: Antimicrobial activity against Staphylococcus epidermidis SW029 expressing icaA gene assessed as enhancement of biofilm formation after 18 hrs by microtiter plate assay; type: functional
[5] = test system: Staphylococcus epidermidis; experiment: Antimicrobial activity against Staphylococcus epidermidis SW036 assessed as enhancement of biofilm formation after 18 hrs by microtiter plate assay; type: functional
[6] = test system: Staphylococcus epidermidis; experiment: Upregulation of icaA gene expression in Staphylococcus epidermidis SW029 at 8 ug/ml after 6 hrs by RT-PCR relative to untreated control; type: functional
[7] = test system: Staphylococcus epidermidis; experiment: Upregulation of atlE gene expression in Staphylococcus epidermidis SW029 at 8 ug/ml after 6 hrs by RT-PCR relative to untreated control; type: functional
[8] = test system: Staphylococcus epidermidis; experiment: Upregulation of fruA gene expression in Staphylococcus epidermidis SW029 at 8 ug/ml after 6 hrs by RT-PCR relative to untreated control; type: functional
[9] = test system: Staphylococcus epidermidis; experiment: Upregulation of pyrR gene expression in Staphylococcus epidermidis SW029 at 8 ug/ml after 6 hrs by RT-PCR relative to untreated control; type: functional
[10] = test system: Staphylococcus epidermidis; experiment: Upregulation of sarA gene expression in Staphylococcus epidermidis SW029 at 8 ug/ml after 6 hrs by RT-PCR relative to untreated control; type: functional
[11] = test system: Staphylococcus epidermidis; experiment: Upregulation of sigB gene expression in Staphylococcus epidermidis SW029 at 8 ug/ml after 6 hrs by RT-PCR relative to untreated control; type: functional
[12] = test system: Staphylococcus epidermidis; experiment: Upregulation of icaA gene expression in Staphylococcus epidermidis SW029 at 8 ug/ml after 24 hrs by RT-PCR relative to untreated control; type: functional
[13] = test system: Staphylococcus epidermidis; experiment: Upregulation of atlE gene expression in Staphylococcus epidermidis SW029 at 8 ug/ml after 24 hrs by RT-PCR relative to untreated control; type: functional
[14] = test system: Staphylococcus epidermidis; experiment: Upregulation of sarA gene expression in Staphylococcus epidermidis SW029 at 8 ug/ml after 24 hrs by RT-PCR relative to untreated control; type: functional
[15] = test system: Staphylococcus epidermidis; experiment: Downregulation of sigB gene expression in Staphylococcus epidermidis SW029 at 8 ug/ml after 24 hrs by RT-PCR relative to untreated control; type: functional
[16] = test system: Staphylococcus epidermidis; experiment: Upregulation of atlE gene expression in Staphylococcus epidermidis SW036 at 8 ug/ml after 6 hrs by RT-PCR relative to untreated control; type: functional
[17] = test system: Staphylococcus epidermidis; experiment: Upregulation of fruA gene expression in Staphylococcus epidermidis SW036 at 8 ug/ml after 6 hrs by RT-PCR relative to untreated control; type: functional
[18] = test system: Staphylococcus epidermidis; experiment: Upregulation of pyrR gene expression in Staphylococcus epidermidis SW036 at 8 ug/ml after 6 hrs by RT-PCR relative to untreated control; type: functional
[19] = test system: Staphylococcus epidermidis; experiment: Upregulation of sarA gene expression in Staphylococcus epidermidis SW036 at 8 ug/ml after 6 hrs by RT-PCR relative to untreated control; type: functional
[20] = test system: Staphylococcus epidermidis; experiment: Upregulation of sigB gene expression in Staphylococcus epidermidis SW036 at 8 ug/ml after 6 hrs by RT-PCR relative to untreated control; type: functional
[21] = test system: Staphylococcus epidermidis; experiment: Enhancement of biofilm formation Staphylococcus epidermidis ATCC 35984 expressing icaA gene at 1/4 X MIC by microtiter plate assay; type: functional
[22] = test system: Staphylococcus epidermidis; experiment: Enhancement of biofilm formation Staphylococcus epidermidis SW027 expressing icaA gene at 1/4 X MIC by microtiter plate assay; type: functional
[23] = test system: Staphylococcus epidermidis; experiment: Enhancement of biofilm formation Staphylococcus epidermidis SW029 expressing icaA gene at 1/4 X MIC by microtiter plate assay; type: functional
[24] = test system: Staphylococcus epidermidis; experiment: Enhancement of biofilm formation Staphylococcus epidermidis SW032 expressing icaA gene at 1/4 X MIC by microtiter plate assay; type: functional
[25] = test system: Staphylococcus epidermidis; experiment: Enhancement of biofilm formation Staphylococcus epidermidis SW045 expressing icaA gene at 1/4 X MIC by microtiter plate assay; type: functional
[26] = test system: Staphylococcus epidermidis; experiment: Enhancement of biofilm formation Staphylococcus epidermidis SW058 expressing icaA gene at 1/4 X MIC by microtiter plate assay; type: functional
[27] = test system: Staphylococcus epidermidis; experiment: Enhancement of biofilm formation Staphylococcus epidermidis SW061 expressing icaA gene at 1/4 X MIC by microtiter plate assay; type: functional
[28] = test system: Staphylococcus epidermidis; experiment: Enhancement of biofilm formation Staphylococcus epidermidis SW067 expressing icaA gene at 1/4 X MIC by microtiter plate assay; type: functional
[29] = test system: Staphylococcus epidermidis; experiment: Enhancement of biofilm formation Staphylococcus epidermidis SW085 expressing icaA gene at 1/4 X MIC by microtiter plate assay; type: functional
[30] = test system: Staphylococcus epidermidis; experiment: Enhancement of biofilm formation Staphylococcus epidermidis SW098 expressing icaA gene at 1/4 X MIC by microtiter plate assay; type: functional
[31] = test system: Staphylococcus epidermidis; experiment: Enhancement of biofilm formation Staphylococcus epidermidis SW104 expressing icaA gene at 1/4 X MIC by microtiter plate assay; type: functional
[32] = test system: Staphylococcus epidermidis; experiment: Enhancement of biofilm formation Staphylococcus epidermidis SW126 expressing icaA gene at 1/4 X MIC by microtiter plate assay; type: functional
[33] = test system: Staphylococcus epidermidis; experiment: Enhancement of biofilm formation Staphylococcus epidermidis SW015 at 1/4 X MIC by microtiter plate assay; type: functional
[34] = test system: Staphylococcus epidermidis; experiment: Enhancement of biofilm formation Staphylococcus epidermidis SW021 at 1/4 X MIC by microtiter plate assay; type: functional
[35] = test system: Staphylococcus epidermidis; experiment: Enhancement of biofilm formation Staphylococcus epidermidis SW036 at 1/4 X MIC by microtiter plate assay; type: functional
[36] = test system: Staphylococcus epidermidis; experiment: Enhancement of biofilm formation Staphylococcus epidermidis SW070 at 1/4 X MIC by microtiter plate assay; type: functional
[37] = test system: Staphylococcus epidermidis; experiment: Enhancement of biofilm formation Staphylococcus epidermidis SW071 at 1/4 X MIC by microtiter plate assay; type: functional
[38] = test system: Staphylococcus epidermidis; experiment: Enhancement of biofilm formation Staphylococcus epidermidis SW082 at 1/4 X MIC by microtiter plate assay; type: functional
[39] = test system: Staphylococcus epidermidis; experiment: Enhancement of biofilm formation Staphylococcus epidermidis SW088 at 1/4 X MIC by microtiter plate assay; type: functional
[40] = test system: Staphylococcus epidermidis; experiment: Enhancement of biofilm formation Staphylococcus epidermidis SW099 at 1/4 X MIC by microtiter plate assay; type: functional
[41] = test system: Staphylococcus epidermidis; experiment: Enhancement of biofilm formation Staphylococcus epidermidis SW115 at 1/4 X MIC by microtiter plate assay; type: functional
[42] = test system: Staphylococcus epidermidis; experiment: Enhancement of biofilm formation Staphylococcus epidermidis SW120 at 1/4 X MIC by microtiter plate assay; type: functional
[43] = test system: Staphylococcus epidermidis; experiment: Antimicrobial activity against Staphylococcus epidermidis SW029 expressing icaA gene assessed as formation of multilayer biofilms at 48 hrs by SEM; type: functional, organism-based
[44] = test system: Staphylococcus epidermidis; experiment: Antimicrobial activity against Staphylococcus epidermidis SW029 expressing icaA gene assessed as increased biofilm formation at 6 to 12 hrs by CLSM; type: functional, organism-based
[45] = test system: Staphylococcus epidermidis; experiment: Effect on polysaccharide secretion in Staphylococcus epidermidis SW029 expressing icaA gene at 12 hrs by SEM; type: functional, organism-based
[46] = test system: Staphylococcus epidermidis; experiment: Antimicrobial activity against compound pretreated Staphylococcus epidermidis assessed as biofilm formation at 1/4 X MIC relative to untreated control; type: functional
[47] = test system: Staphylococcus epidermidis; experiment: Antimicrobial activity against Staphylococcus epidermidis lacking compound-induced biofilms; type: functional
[48] = test system: Staphylococcus epidermidis; experiment: Antimicrobial activity against Staphylococcus epidermidis lacking compound-induced biofilms assessed as biofilm formation at 1/4 X MIC relative to untreated control; type: functional
[49] = test system: Staphylococcus epidermidis; experiment: Antimicrobial activity against compound pretreated Staphylococcus epidermidis biofilms; type: functional

**Q.** Which results are given for `CC[C@H]1OC(=O)[C@H](C)[C@@H](O[C@H]2C[C@@](C)(OC)[C@@H](O)[C@H](C)O2)[C@H](C)[C@@H](O[C@@H]2O[C@H](C)C[C@H](N(C)C)[C@H]2O)[C@](C)(O)C[C@@H](C)C(=O)[C@H](C)[C@@H](O)[C@]1(C)O` [ERYTHROMYCIN]?
**A.** MIC [1]: > 128 µg/mL; MIC [2]: > 128 µg/mL; Activity [3]: Active; Activity [4]: 173%; Activity [5]: 100%; fold change (FC) [6]: 1.2; fold change (FC) [7]: 6.2; fold change (FC) [8]: 4.5; fold change (FC) [9]: 3.7; fold change (FC) [10]: 1.7; fold change (FC) [11]: 2; fold change (FC) [12]: 2.8; fold change (FC) [13]: 2.4; fold change (FC) [14]: 6.9; fold change (FC) [15]: 0.6; fold change (FC) [16]: 1.8; fold change (FC) [17]: 2.4; fold change (FC) [18]: 2.4; fold change (FC) [19]: 1.7; fold change (FC) [20]: 1.4; Activity [21]: 7%; Activity [22]: 60.4%; Activity [23]: 159.6%; Activity [24]: 78.5%; Activity [25]: 47.2%; Activity [26]: 37.9%; Activity [27]: 50.8%; Activity [28]: 150.3%; Activity [29]: 297.8%; Activity [30]: 93.9%; Activity [31]: 63.2%; Activity [32]: 56.1%; Activity [33]: 87.8%; Activity [34]: 34.7%; Activity [35]: 284.3%; Activity [36]: 172.2%; Activity [37]: 230.4%; Activity [38]: 58.7%; Activity [39]: 163.1%; Activity [40]: 55.7%; Activity [41]: 166.8%; Activity [42]: 69.4%; Activity [43]: inactive; Activity [44]: inactive; Activity [45]: inactive; Ratio [46]: 2.51; MIC [47]: ≥ 16 µg/mL; Ratio [48]: 1.02; MIC [49]: ≥ 32 µg/mL
